ChEMBL document CHEMBL1151502, “New base-altered adenosine analogues: Synthesis and affinity at adenosine A1 and A2A receptors” (Bioorg Med Chem Lett, 1997)

Legend:
[1] = molecular target: Adenosine receptor A2a (Rattus norvegicus) (UniProt P30543); assay: Displacement of [3H]-CGS- 21680 from Adenosine A2 receptor in rat striatal membranes at 10e-5 M; format: cell membranes; conditions: Membrane
Adenosine receptor A1 = molecular target: T1, Adenosine receptor A1 (Rattus norvegicus, UniProt P25099); assay: Binding affinity at Adenosine A1 receptor in rat brain membranes by [3H](R)-PIA displacement.; format: cell membranes
T1 sequence (P25099 whole entry): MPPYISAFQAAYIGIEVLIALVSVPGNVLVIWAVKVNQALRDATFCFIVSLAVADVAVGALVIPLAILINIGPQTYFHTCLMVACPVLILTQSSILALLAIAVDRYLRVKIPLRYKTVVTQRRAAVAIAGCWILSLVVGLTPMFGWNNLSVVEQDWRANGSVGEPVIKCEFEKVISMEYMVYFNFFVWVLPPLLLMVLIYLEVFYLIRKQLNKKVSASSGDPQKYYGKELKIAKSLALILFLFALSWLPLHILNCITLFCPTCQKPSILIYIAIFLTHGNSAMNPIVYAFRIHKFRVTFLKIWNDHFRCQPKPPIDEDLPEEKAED

[2] = molecular target: Adenosine receptor A2a (Rattus norvegicus) (UniProt P30543); assay: Displacement of [3H]-CGS- 21680 from Adenosine A2 receptor in rat striatal membranes at 10e-4 M; format: cell membranes; conditions: Membrane
Adenosine receptor A2a = Adenosine receptor A2a (Rattus norvegicus, UniProt P30543); assay: Displacement of [3H]-CGS- 21680 from Adenosine A2 receptor of rat striatal membranes; format: cell membranes, Membrane
Adenosine receptor A2a, sequence (P30543 whole entry): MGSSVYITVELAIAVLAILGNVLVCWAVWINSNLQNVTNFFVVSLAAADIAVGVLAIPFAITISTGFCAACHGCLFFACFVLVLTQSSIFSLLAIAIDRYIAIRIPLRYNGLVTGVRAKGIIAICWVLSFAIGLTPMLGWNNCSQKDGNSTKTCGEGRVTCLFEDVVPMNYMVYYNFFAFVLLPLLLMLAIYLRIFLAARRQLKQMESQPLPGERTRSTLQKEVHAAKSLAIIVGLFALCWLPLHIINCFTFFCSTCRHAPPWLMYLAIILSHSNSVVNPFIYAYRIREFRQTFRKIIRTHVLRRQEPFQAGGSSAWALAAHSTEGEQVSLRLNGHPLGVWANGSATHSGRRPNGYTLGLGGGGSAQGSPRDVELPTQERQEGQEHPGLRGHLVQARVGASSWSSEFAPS

[3] = molecular target: Adenosine receptors; A1 & A2a (Rattus norvegicus) (UniProt P25099+P30543); assay: Selective ratio of A1 receptor to A2A receptor; format: protein assay
Adenosine receptors; A1 & A2a (Rattus norvegicus), sequence (P30543 whole entry, looked up, one chain of several): as the sequence (P30543 whole entry) above

[4] = molecular target: Adenosine receptor A1 (Rattus norvegicus) (UniProt P25099); assay: Binding affinity for Adenosine A1 receptor

Adenosine receptor A2a (Rattus norvegicus), sequence (P30543 whole entry): as above

Ki (Adenosine receptor A1) | Ki (Adenosine receptor A2a) | SMILES | also measured
0.139 µM | – | CC(C)C[C@@H](CO)Nc1ncnc2c1ncn2C1O[C@H](CO)[C@@H](O)[C@H]1O (stereo not given in full) | Displacement [1]: < 10%
15.5 µM | – | OC[C@H]1OC(n2cnc3c(NN4CCOCC4)ncnc32)[C@H](O)[C@@H]1O (stereo not given in full) | Displacement [2]: 36%
0.008 µM | 2.8 µM | OC[C@H]1O[C@@H](n2cnc3c(NN4CCCC4)ncnc32)[C@H](O)[C@@H]1O (stereo in doubt) [listing 1 of 2 here] | –
0.113 µM | 19.4 µM | OC[C@H]1OC(n2cnc3c(NN4CCOCC4)nc(I)nc32)[C@H](O)[C@@H]1O (stereo not given in full) | –
0.452 µM | 10.4 µM | OC[C@@H](Cc1ccccc1)Nc1nc(Cl)nc2c1ncn2C1O[C@H](CO)[C@@H](O)[C@H]1O (stereo not given in full) | –
0.989 µM | – | OC[C@@H](Cc1ccccc1)Nc1nc(I)nc2c1ncn2C1O[C@H](CO)[C@@H](O)[C@H]1O (stereo not given in full) | Displacement [2]: 49%
– | 0.47 µM | OC[C@H]1O[C@@H](n2cnc3c(NN4CCC(Sc5ccccc5)CC4)nc(Cl)nc32)[C@H](O)[C@@H]1O | Ratio [3]: 522
0.023 µM | 1.36 µM | OC[C@H](Cc1ccccc1)Nc1nc(I)nc2c1ncn2C1O[C@H](CO)[C@@H](O)[C@H]1O (stereo not given in full) | –
– | – | OC[C@H]1O[C@@H](n2cnc3c(NN4CCCC4)ncnc32)[C@H](O)[C@@H]1O (stereo in doubt) [listing 2 of 2 here] | Ratio [3]: 350
0.008 µM | 2.8 µM | OC[C@H]1O[C@@H](n2cnc3c(NN4CCCC4)ncnc32)[C@H](O)[C@@H]1O (stereo in doubt; 3) | –
0.00241 µM | 0.492 µM | OC[C@H](Cc1ccccc1)Nc1nc(Cl)nc2c1ncn2C1O[C@H](CO)[C@@H](O)[C@H]1O (stereo not given in full) | –
0.00355 µM | 0.936 µM | OC[C@H]1O[C@@H](n2cnc3c(NN4CCCCC4)nc(Cl)nc32)[C@H](O)[C@@H]1O | –
0.0027 µM | 0.39 µM | CC(Nc1ncnc2c1ncn2[C@@H]1O[C@H](CO)[C@@H](O)[C@H]1O)[C@@H](O)c1ccccc1 (stereo not given in full) | Ratio [3]: 144
0.00489 µM | 1.9 µM | OC[C@H]1O[C@@H](n2cnc3c(NN4CCOCC4)nc(Cl)nc32)[C@H](O)[C@@H]1O | Ki [4]: 0.008 µM
0.071 µM | 8.63 µM | OC[C@H]1OC(n2cnc3c(NN4CCCCC4)nc(I)nc32)[C@H](O)[C@@H]1O (stereo not given in full) | –
0.224 µM | 30.3 µM | CC(C)C[C@H](CO)Nc1ncnc2c1ncn2C1O[C@H](CO)[C@@H](O)[C@H]1O (stereo not given in full) | –
0.0073 µM | – | OC[C@H]1O[C@@H](n2cnc3c(NN4CCCCC4)ncnc32)[C@H](O)[C@@H]1O | Displacement [2]: 29%
